Patent US12139481B2, “Compositions comprising macrocycle derivatives incorporating bridged macrocycles and methods of producing and using same” (Southwestern Oklahoma State University, priority 2015, dated 2024)
Where two headings read alike, the source gives them in different places.

Tests used:
[1] = test system: C. glabrata ATCC 90030; test: Antifungal broth dilution assay against C. glabrata (modified CLSI); type: cell-based, Candida glabrata; details: for C. glabrata IC50 / IC50: in vitro; for IC50: converted with molecular weight; for X more potent than Amphotericin B: molar IC50 ratio versus amphotericin B
Method: (§1) General Experimental Procedures. All organisms were obtained from the American Type Culture Collection (Manassas, VA) and include the fungi Candida albicans ATCC 90028, C. glabrata ATCC 90030, C. krusei ATCC 6258, and Cryptococcus neoformans ATCC 90113, and the bacteria Staphylococcus aureus ATCC 29213 and methicillin-resistant S. aureus ATCC 33591 (MRS). All organisms were tested using modified versions of the CLSI (formerly NCCLS) methods. For all organisms, optical density was used to monitor growth (NCCLS, Reference Method for Broth Dilution Antifungal Susceptibility Testing of Yeasts; Approved Standard M27-A2. National Committee on Clinical Laboratory Standards, 2002 22 (15); and NCCLS, Methods for Dilution Antimicrobial Susceptibility Tests for Bacteria that Grow Aerobically; Approved Standard, Seventh Edition M7-A7. National Committee on Clinical Laboratory Standards, 2006. 26(2)).
Samples (dissolved in DMSO) were serially-diluted in 20% DMSO/saline and transferred (10 μL) in duplicate to 96 well flat bottom microplates. Inocula were prepared by correcting the OD630 of microbe suspensions in incubation broth [RPMI 1640/0.2% dextrose/0.03% glutamine/MOPS @ pH 6.0 (Cellgro) for Candida spp., Sabouraud Dextrose for C. neoformans, and cation-adjusted Mueller-Hinton (Difco) @ pH 7.3 for Staphylococcus spp. to afford an assay volume of […] and final target inocula of: Candida spp. and C. neoformans: 1.5×10^3, and Staphylococcus spp.: 5.0×10^5 CFU/ml. Final sample test concentrations were 1/100th the DMSO stock concentration. […] All organisms were read at either 530 nm using the Biotek Powerwave XS plate reader (Bio-Tek Instruments, Vermont) prior to and after incubation: Candida spp. at 35° C. for 46-50 h, Staphylococcus spp. at 35° C. for 16-20 h, and C. neoformans at 35° C. for 70-74 h. IC50s (concentrations that afford 50% inhibition relative to controls) were calculated using XLfit 4.2 software (IDBS, Alameda, CA) using fit model 201. The MIC is defined as the lowest test concentration that allows no detectable growth. Minimum fungicidal or bactericidal concentrations were determined by removing 5 μl from each clear (or blue) well, transferring to fresh media, and incubating as previously mentioned. The MFC/MBC is defined as the lowest test concentration that kills the organism (allows no growth).
Primary Analysis. Samples were tested in duplicate at one test concentration (50 μg/mL), and percent inhibitions were calculated relative to blank and growth controls. Samples showing 50% inhibition in at least one test organism were selected for dose response (Secondary) studies.
Secondary Analysis. Extracts from the Primary Assay, and first-run pure compounds and column fractions were tested in duplicate at 3 test concentrations (5-fold dilutions). Samples dissolved to 20 mg/mL in DMSO were tested at 200, 40, and 8 μg/mL. Samples dissolved to 2 mg/mL in DMSO were tested at 20, 4, and 0.8 μg/mL.

[2] = test system: Cryptococcus neoformans ATCC 90113; test: Antimicrobial microdilution assay against Cryptococcus neoformans (modified CLSI/NCCLS, optical density); type: cell-based; details: for X more potent than Amphotericin B: C. neoformans, ratio of molar IC50 to Amphotericin B; for C. neoformans IC50 / IC50: in vitro, C. neoformans ATCC 90113; for IC50: read-out: C. neoformans IC50 (mol/L)
Method: Summary: Various macrocyclic derivatives constructed in accordance with the presently disclosed and/or claimed inventive concept(s) were screened in vitro against Cryptococcus neoformans ATCC 90113 using a microdilution assay. The minimum fungicidal concentration (MFC), the lowest test concentration that kills the organism, was determined in broth media.
Antimicrobial assay: Cryptococcus neoformans ATCC 90113 were obtained from the American Type Culture Collection (Manassas, VA.). The susceptibility testing was performed using a modified version of the CLSI (formerly NCCLS) methods (see below), and optical density was used to monitor growth. Samples were serially diluted in 20% DMSO/saline and transferred in duplicate to 96-well flat bottom microplates. Microbial inocula were prepared by correcting the OD630 of cell/spore suspensions in incubation broth RPMI at pH 6.0 to afford final desired target inocula. Amphotericin B (“AMB;” ICN Biomedicals, OH) was used as drug control. The organism concentration was read at 630 nm using the Biotek Powerwave XS plate reader (Bio-Tek instruments, VT) prior to and after incubation. Minimum fungicidal concentrations were determined by removing 5 μL from each clear well, transferring to agar, and incubating until growth was seen. The MFC/MBC is defined as the lowest test concentration that kids the organism (allows no growth on agar).
References for NCCLS methods referenced above: 1 NCCLS. Reference method for broth dilution antifungal susceptibility testing of yeasts, Vol. 22. Approved standard, 2nd ed. Wayne: National Committee for Clinical Laboratory Standards; 2002: 1-51. 2 NCCLS. Reference method for broth dilution antifungal susceptibility testing of conidium forming filamentous fungi, Vol. 18. Proposed standard M38-P. Wayne: National Committee for Clinical Laboratory Standards; 1998: 1-39. 3 NCCLS. Methods for dilution antimicrobial susceptibility tests for bacteria that grow aerobically, Vol. 20. NCCLS Document M7-A5. Wayne: National Committee for Clinical Laboratory Standards; 2000: 1-58.
The term “IC50” as used herein will be understood to refer to a test concentration in mol/L that affords 50% inhibition of the microbe relative to negative and positive controls. […] The abbreviation “MFC” as used herein will be understood to refer to a minimum fungicidal concentration, or the lowest test concentration in mol/L that kills the organism. All IC50s are calculated using the XLfit® fit curve fitting software (ID Business Solutions Ltd, Guildford, Surrey, UK).
as §1
Samples (dissolved in DMSO) were serially-diluted in 20% DMSO/saline and transferred (10 μL) in duplicate to 96 well flat bottom microplates.

[3] = test system: L. donovani promastigotes; test: Antileishmanial Alamar Blue assay on promastigotes; type: cell-based, Leishmania donovani; details: for X more potent than Pentamidine: L. donovani, ratio of molar IC50 to Pentamidine; for L. donovani IC50 / IC50: promastigotes, 48 hours, Alamar Blue; for IC50: read-out: L. donavani IC50
Method: Methods: The compounds were screened in vitro against the promastigote forms of the leishmania parasites employing the Alamar Blue assay as discussed below.
Antileishmanial activity of the compounds was tested in vitro against a culture of L. donovani promastigotes, grown in RPMI 1640 medium supplemented with 10% fetal calf serum (FCS, Gibco Chem. Co., Grand Island, NY) at 26° C. A 3-day-old culture was diluted to 5×10^5 promastigotes/mL. Drug dilutions (50-3.1 μg/mL) were prepared directly in cell suspension in 96-well plates. Plates were incubated at 26° C. for 48 hours, and growth of leishmania promastigotes was determined by Alamar Blue assay. Standard fluorescence was measured on a FLUOstar® Galaxy plate reader (BMG Lab Technologies, Ortenberg, Germany) at an excitation wavelength of 544 nm and emission wavelength of 590 nm. Pentamidine and amphotericin B were used as the standard antileishmanial agents. Percent growth was calculated and plotted versus test concentration for computing the IC50 values.

Compound | C. glabrata IC50 [1] [µg/mL] | IC50 [1] [µM] | X more potent than Amphotericin B [1] | X more potent than Amphotericin B [2] | C. neoformans IC50 [2] [µg/mL] | IC50 [2] [µM] | X more potent than Pentamidine [3] | L. donovani IC50 [3] [µg/mL] | IC50 ([3]; HCl salt) [µM] | IC50 ([2]; HCl salt) [µM] | IC50 [3] [µM]
C1CNCCN2CCCNCCN(C1)CCC2 [DJD27, H2PBCyclam] | 3.380 | 14.1 | 0.10 | 0.03 | 1.830 | 7.61 |  |  |  |  | 
Cl.Cl.Cl.Cl.Cl.Cl.Cl.Cl.c1cc(CN2CCNCCCN3CCN(CC3)CC2)ccc1CN1CCNCCCN2CCN(CC2)CC1 [OB45B, p-SB-homocyclens HCl salt] |  |  |  | 0.67 | 0.290 |  | 0.13 | 34.55 | 42.2 | 0.354 | 
c1cc(CN2CCCN3CCNCCCN(CC3)CC2)ccc1CN1CCCN2CCNCCCN(CC2)CC1 [JGL44, p-CB-H2Bcyclams] |  |  |  | 0.73 | 0.180 | 0.324 | 0.11 | 28.08 |  |  | 50.6
[Zn(dcp1-SB-cyclen)(OAc)]PF6 [OB110A] |  |  |  | 0.30 | 0.610 | 0.805 | 0.11 | 38.32 |  |  | 50.6
[Cu2(m-cyclam-homocyclen)(OAc)1.5][PF6]2.5 [AW051A] | 7.253 | 6.32 | 0.22 | 0.23 | 1.172 | 1.02 |  |  |  |  | 
p-CB-cyclam-cyclen [CMB008D] |  |  |  | 0.17 | ≤ 0.800 | 1.44 | 0.08 | 38.75 |  |  | 69.8
CC(=O)[O-].F[P-](F)(F)(F)(F)F.[Zn+2].c1ccc(CN2CCCNCCN(Cc3ccccc3)CCCNCC2)cc1 [SLK07B, [Zn(Bn2Cyclam)(OAc)]PF6] |  |  |  | 0.01 | 19.840 |  | 1.16 | 2.97 |  |  | 
CC(=O)[O-].CC(=O)[O-].F[P-](F)(F)(F)(F)F.F[P-](F)(F)(F)(F)F.O.[Zn+2].[Zn+2].c1cc(CN2CCCN3CCNCCCN(CC3)CC2)ccc1CN1CCCN2CCNCCCN(CC2)CC1 [TJH417B, [Zn2(H2-p-CB-cyclams)(OAc)2][PF6]2•H2O] |  |  |  | 0.08 | 3.120 |  | 0.17 | 34.93 |  |  | 
[Cl][Mn-2]([Cl])([Cl])[Cl].[Cl][Mn-2]([Cl])([Cl])[Cl].[Mn+2].[Mn+2].c1cc(CN2CCCN3CCNCCCN(CC3)CC2)ccc1CN1CCCN2CCNCCCN(CC2)CC1 [TJH412, [Mn2(H2-p-CB-cyclams)][MnCl4]2] |  |  |  | 0.13 | 1.990 | 1.88 | 0.17 | 33.37 |  |  | 31.5
[Ni3(tris-CB-Cyclams)(OAc)3][PF6]3•2.5H2O [BNS23] |  |  |  | 0.03 | 12.110 | 7.26 | 0.28 | 31.63 |  |  | 19
CC(=O)[O-].Clc1cc(CN2CCNCCN3CCN(CC3)CC2)cc(Cl)n1.F[P-](F)(F)(F)(F)F.[Ni+2] [OB106, [Ni(dcp1-SB-cyclen)(OAc)]PF6] |  |  |  | 0.38 | 0.390 | 0.628 | 0.14 | 23.19 |  |  | 37.3
p-SB-cyclens HCl salt [OB24B] |  |  |  | 0.31 | 0.670 | 0.776 | 0.14 | 32.40 |  |  | 37.5
[Co2(m-CB-Homocyclens)(OAc)2.6][PF6]1.4 [CDG036] |  |  |  | 0.08 | 3.040 | 2.95 | 0.25 | 22.23 |  |  | 21.6
CC(=O)[O-].CC(=O)[O-].CC(=O)[O-].CC(=O)[O-].O=[N+]([O-])c1ccc(CC2CNCCN(Cc3ccc(CN4CCCN5CCN(CCCNCC4)CC5)cc3)CCCN3CCN(CC3)C2)cc1.[Zn+2].[Zn+2] (stereo not drawn) [SJA235, [Zn2(bis-SB-C-Ar-NO2)(OAc)4]] |  |  |  | 0.13 | 1.930 |  | 0.16 | 34.77 |  |  | 
c1ccc(CN2CCN3CCN(CC2)CCN(Cc2ccccn2)CC3)nc1 [PW95] | 14.850 | 39 | 0.04 |  |  |  |  |  |  |  | 
CC(=O)[O-].Clc1cc(CN2CCCN3CCN(CCCNCC2)CC3)cc(Cl)n1.F[P-](F)(F)(F)(F)F.[Co+2] [KLC002A] | 16.070 | 24.8 | 0.06 |  |  |  |  |  |  |  | 
c1ccc(CN2CCCNCCN(Cc3ccccc3)CCCNCC2)cc1 [BME04, Bn2Cyclam] |  |  |  | 0.01 | 12.160 | 31.9 | 0.77 | 2.63 |  |  | 6.91
